Results reported in patent US20150111864A1, “CRYSTALLINE FORM OF A BETA-LACTAMASE INHIBITOR” (Cubist Pharmaceuticals, Inc., priority 2013, published 2015).

Assays:
Cfr.568 (AmpC, clinical) = experiment: Standard BLI Potentiation MIC Assay in Combination with Ceftolozane; format: cell-based, Citrobacter spp; conditions: Cfr.568, AmpC, clinical; BLI at 4 μg/mL
Procedure: (§1) The experimental protocol was performed according to Clinical and Laboratory Standards Institute (CLSI) guidelines with modifications as described below (CLSI guidelines can be derived from the CLSI document M07-A9 published in January 2012: “Methods for Dilution Antimicrobial Susceptibility Tests for Bacteria That Grow Aerobically; Approved Standard-Ninth Edition”).
(§2) Frozen glycerol stocks of laboratory engineered, isogenic E. coli strains, which contain cloned β-lactamase expressing plasmids were used to streak for isolated colonies on rich, selective LB agar supplemented with 25 μg/mL tetracycline to maintain the plasmid. All strains were incubated at 37° C. for 18-24 hrs.
(§3) On the day of testing, primary cultures were started by scraping off 5-10 colonies from the TSAB plates containing clinical strains or the tetracycline supplemented LB plates containing engineered strains. […]
(§4) Plates were incubated for 18-20 hours at 37° C. with aeration (200 rpm). Following incubation, growth was confirmed visually placing plates over a viewing apparatus (stand with a mirror underneath) and then OD600 was measured using a SpectraMax 340PC384 plate reader (Molecular Devices, Sunnyvale, Calif.). Growth was defined as turbidity that could be detected with the naked eye or achieving minimum OD600 of 0.1. […]

[1] = tested on: Eco isogenic strain expressing OXA-15; experiment: Synergy MIC (sMIC) assay; format: cell-based, Escherichia coli; conditions: β-Lactam CXA-101 at 4 μg/mL; OXA-15, isogenic Eco
Procedure: (§5) The synergy MIC (sMIC) assay determines the concentration of the BLI required to potentiate the activity of a fixed concentration of a β-lactam antibiotic against β-lactamase producing bacterial strains. The experimental protocol was performed according to Clinical and Laboratory Standards Institute (CLSI) guidelines with modifications as described below (CLSI guidelines can be derived from the CLSI document M07-A9 published in January 2012: “Methods for Dilution Antimicrobial Susceptibility Tests for Bacteria That Grow Aerobically; Approved Standard-Ninth Edition”). The assay wa set-up by serially diluting the BLI across 11 of the 12 wells in each row of a 96-well broth microdilution assay plate, adding the β-lactam at a fixed concentration to all wells in the assay plate, inoculating the assay plate with bacterial strains, and determining the lowest concentration of BLI required to inhibit overnight bacterial growth.
as §2
(§6) On the day of testing, primary cultures were started by scraping off 5-10 colonies from the TSAB plates containing clinical strains or the tetracycline supplemented LB plates containing engineered strains. The clinical strain material was suspended in ˜5 mL of cation adjusted Mueller Hinton Broth (CAMHB) in 14 mL culture tubes. The engineered strain material was suspended in CAMHB (supplemented with tetracycline at 25 μg/mL) in 14 mL culture tubes. All strains were incubated at 37° C. with aeration (200 rpm) for ≧2 hrs until the OD600 was ≧0.1.
(§7) The two compound components of the assay were each prepared in CAMHB and added to the 96-well broth microdilution assay plates. 50 μL of the BLI was added to each well of the assay plate in 2-fold dilutions with final concentrations ranging from 128 to 0.13 μg/mL. 25 μL of the β-lactam was added to all wells in the broth microdilution plates at a final concentration of 4 μg/mL. Inoculum cultures were prepared by standardizing the primary cultures to OD600=0.1 and then adding 20 μL of the adjusted primary culture per 1 mL CAMHB for clinical strains or CAMHB (supplemented with tetracycline at 100 μg/mL) for isogenic strains, so that the final inoculum density was ˜10^5 colony forming units per milliliter. Diluted inoculum cultures were used to inoculate 25 μL per well in 96-well broth microdilution assay plates. The final volume of each well was 100 μL and contained a BLI at different concentrations, a β-lactam at 4 μg/mL concentration, the bacterial culture at an OD600 of approximately 0.001 and when necessary tetracycline at 25 ug/mL.
as §4, with “0.1. sMIC values were defined as the lowest concentration producing no visible turbidity.” for “0.1.”

[2] = tested on: Eco isogenic strain expressing SHV-12; experiment: Synergy MIC (sMIC) assay; format: cell-based, Escherichia coli; conditions: β-Lactam CXA-101 at 4 μg/mL; SHV-12, isogenic Eco
Procedure: as §5, §2, §6, §7
as §4, with “0.1. sMIC values were defined as the lowest concentration producing no visible turbidity.” for “0.1.”

[3] = tested on: Eco isogenic strain expressing CTX-M-15; experiment: Synergy MIC (sMIC) assay; format: cell-based, Escherichia coli; conditions: β-Lactam CXA-101 at 4 μg/mL; CTX-M-15, isogenic Eco
Procedure: as §5, §2, §6, §7
as §4, with “0.1. sMIC values were defined as the lowest concentration producing no visible turbidity.” for “0.1.”

[4] = tested on: Eco isogenic strain expressing P99; experiment: Synergy MIC (sMIC) assay; format: cell-based, Escherichia coli; conditions: β-Lactam CXA-101 at 4 μg/mL
Procedure: as §5, §2, §6, §7
as §4, with “0.1. sMIC values were defined as the lowest concentration producing no visible turbidity.” for “0.1.”

[5] = tested on: Eco isogenic strain, β-Lactamase none; experiment: Synergy MIC (sMIC) assay; format: cell-based, Escherichia coli; conditions: β-Lactam none
Procedure: as §5, §2, §6, §7
as §4, with “0.1. sMIC values were defined as the lowest concentration producing no visible turbidity.” for “0.1.”

[6] = tested on: Eco.2845 (OXA-15, isogenic); experiment: Standard BLI Potentiation MIC Assay in Combination with Ceftolozane; format: cell-based, Escherichia coli; conditions: Eco.2845, OXA-15, isogenic; BLI at 4 μg/mL
Procedure: as §1, §2
as §6, with “with” for “with tetracycline at”, “μg/mL tetracycline)” for “μg/mL)”, “˜2” for “≧2”, “optical density at 600 nm (OD600)” for “OD600”
(§8) The two compound components of the assay were each diluted in CAMHB and added to the 96-well broth microdilution assay plates. 50 μL of the β-lactam was added to each well of the assay plate in 2-fold dilutions with final concentrations ranging from 128 to 0.13 μg/mL. 25 μL of the BLI compound was added to all wells in the broth microdilution plates at a final concentration of 4 μg/mL. Inoculum cultures were prepared by standardizing the primary cultures to OD600=0.1 and then adding 20 μL of the adjusted primary culture per 1 mL CAMHB for clinical strains or CAMHB (supplemented with tetracycline at 100 μg/mL) for engineered strains, so that the final inoculum density was ˜10^5 colony forming units per milliliter. Diluted inoculum cultures were used to inoculate 25 μL per well in 96-well broth microdilution assay plates. The final volume of each well was 100 μL and contained a β-lactam at different concentrations, a BLIcompound at 4 μg/mL concentration, the bacterial culture at an OD600 of approximately 0.001 and when necessary tetracycline at 25 μg/mL.
(§9) Plates were incubated for 18-20 hours at 37° C. with aeration (200 rpm). Following incubation, growth was confirmed visually placing plates over a viewing apparatus (stand with a mirror underneath) and then OD600 was measured using a SpectraMax 340PC384 plate reader (Molecular Devices, Sunnyvale, Calif.). Growth was defined as turbidity that could be detected with the naked eye or achieving minimum OD600 of 0.1. MIC values were defined as the lowest concentration producing no visible turbidity.

[7] = tested on: Eco.2843 (DHA-1, isogenic); experiment: as above; format: cell-based, Escherichia coli; conditions: Eco.2843, DHA-1, isogenic; BLI at 4 μg/mL
Procedure: as §1, §2
as §6, with “with” for “with tetracycline at”, “μg/mL tetracycline)” for “μg/mL)”, “˜2” for “≧2”, “optical density at 600 nm (OD600)” for “OD600”
as §8, §9

[8] = tested on: Eco.2491 (CMY-2, clinical); experiment: as above; format: cell-based, Escherichia coli; conditions: Eco.2491, CMY-2, clinical; BLI at 4 μg/mL
Procedure: as §1, §2
as §6, with “with” for “with tetracycline at”, “μg/mL tetracycline)” for “μg/mL)”, “˜2” for “≧2”, “optical density at 600 nm (OD600)” for “OD600”
as §8, §9

Ecl.569 (AmpC, clinical) = experiment: as above; format: cell-based, Enterobacter spp; conditions: Ecl.569, AmpC, clinical; BLI at 4 μg/mL
Procedure: as §1, §2, §3, §4

[9] = tested on: Panel of Isogenic and Clinical Strains Expressing β-Lactamases; experiment: Standard BLI Potentiation MIC Assay in Combination with Ceftolozane, whole panel; format: cell-based; conditions: panel of 24 strains; BLI at 4 μg/mL
Procedure: as §1, §2
as §6, with “with” for “with tetracycline at”, “μg/mL tetracycline)” for “μg/mL)”, “˜2” for “≧2”, “optical density at 600 nm (OD600)” for “OD600”
as §8, §4

[10] = tested on: Pae.2885 (AmpC, clinical); experiment: Standard BLI Potentiation MIC Assay in Combination with Ceftolozane; format: cell-based, Pseudomonas aeruginosa; conditions: Pae.2885, AmpC, clinical; BLI at 4 μg/mL
Procedure: as §1, §2
as §6, with “with” for “with tetracycline at”, “μg/mL tetracycline)” for “μg/mL)”, “˜2” for “≧2”, “optical density at 600 nm (OD600)” for “OD600”
as §8, §9

[11] = tested on: Pae.2757 (AmpC over-expn, clinical); experiment: as above; format: cell-based, Pseudomonas aeruginosa; conditions: Pae.2757, AmpC over-expn, clinical; BLI at 4 μg/mL
Procedure: as §1, §2
as §6, with “with” for “with tetracycline at”, “μg/mL tetracycline)” for “μg/mL)”, “˜2” for “≧2”, “optical density at 600 nm (OD600)” for “OD600”
as §8, §9

[12] = tested on: Pae.2863 (AmpC de-repress, clinical); experiment: as above; format: cell-based, Pseudomonas aeruginosa; conditions: Pae.2863, AmpC de-repress, clinical; BLI at 4 μg/mL
Procedure: as §1, §2
as §6, with “with” for “with tetracycline at”, “μg/mL tetracycline)” for “μg/mL)”, “˜2” for “≧2”, “optical density at 600 nm (OD600)” for “OD600”
as §8, §9

Question: Which results are given for “(2S,5R)-2-(5-(3-aminopropyl)-1,3,4-oxadiazol-2-yl)-7-oxo-1,6-diazabicyclo[3.2.1]octan-6-yl hydrogen sulfate [ψ]”?
Answer: MIC of Ceftolozane in combination with BLI (Cfr.568 (AmpC, clinical)): A (A = 0.25-0.5 μg/mL); sMIC [1]: B (B = 1-2 μg/mL); sMIC [2]: B (B = 1-2 μg/mL); sMIC [3]: A (A = 0.25-0.5 μg/mL); sMIC [4]: B (B = 1-2 μg/mL); sMIC [5]: D (D = 16-32 μg/mL); MIC of Ceftolozane in combination with BLI [6]: B (B = 1-2 μg/mL); MIC of Ceftolozane in combination with BLI [7]: AA (AA = <0.25 μg/mL); MIC of Ceftolozane in combination with BLI [8]: AA (AA = <0.25 μg/mL); MIC of Ceftolozane in combination with BLI (Ecl.569 (AmpC, clinical)): A (A = 0.25-0.5 μg/mL); MIC50 of Ceftolozane in combination with BLI [9]: A (A = 0.25-0.5 μg/mL); MIC90 of Ceftolozane in combination with BLI [9]: B (B = 1-2 μg/mL); MIC of Ceftolozane in combination with BLI [10]: A (A = 0.25-0.5 μg/mL); MIC of Ceftolozane in combination with BLI [11]: B (B = 1-2 μg/mL); MIC of Ceftolozane in combination with BLI [12]: B (B = 1-2 μg/mL)
